Data from patent US8664214B2, “Small molecule potentiators of metabotropic glutamate receptors I” (AbbVie Deutschland GmbH & Co. KG, priority 2010, dated 2014).

biological target: T1, human mGlu2 receptor (Homo sapiens, UniProt Q14416); assay: FLIPR intracellular Ca2+ assay, potentiation of 1 μM glutamate in HEK293 cells expressing hmGlu2, rGLAST and Galpha16; format: cell-based; details: HEK293 hmGlu2 clone
T1 construct: V5/His (named only as part of the vector); expressed in transfected cells; host or cells: HEK293
Description: The compounds of the present invention can be tested e.g. by evaluating intracellular Ca^2+ concentrations in cells permanently expressing human mGlu receptor, the rat glutamate transporter rGLAST and the Galpha16 subunit of the G-protein complex under standard conditions in a fluorometric imaging plate reader (FLIPR, Molecular Devices, Union City, Calif. 94587, USA) by measuring the response of the cells to a test compound in the absence of presence of glutamate. The FLIPR assay is a common functional assay to monitor native or recombinant Galphaq-coupled receptors, and native or recombinant receptors normally linked to other G-protein signalling cascades, which are coupled to calcium through co-expression of an alpha subunit of a promiscuous or chimeric G-protein. In the assay the increase of intracellular calcium is measured through a calcium-dependent fluorescent dye (e.g. Fluo-4 AM) in the FLIPR instrument.
For the purpose of the present study, a cell line permanently expressing a human mGlu receptor, such as the mGlu2 receptor, the rat glutamate transporter rGLAST and the GalphaG16 may be generated by transfection as described in the examples. For selection of a suitable cell clone and also the subsequent measurements, the selected clone the cells will be plated on suitable multiwell plates in a suitable medium (e.g. DMEM Glutamax (GIBCO # 21885-025)/10% dialyzed FCS). Cells may be selected by gentamycin treatment as described in the examples. Cells will then be loaded with a suitable Ca^2+ sensitive fluorescence dye, e.g. with 2 μM Fluo-4 AM (Molecular Probes, F14201). Cells will then be washed with a suitable buffer (e.g. HEPES) and the thus treated plates will be measured in a fluorometric imaging plate reader (e.g. FLIPR, Molecular Devices, Union City, Calif. 94587, USA).
The compounds of the present invention were tested in the above-described FLIPR assay using the selected cell clone. Increased intracellular calcium levels were quantified following addition of test compound (agonism), as well as following addition of a submaximal concentration of glutamate (potentiation).
For the determination of the effect of the test compound by itself (agonism) or by increasing the response to a submaximal concentration (e.g. 1 μM) of glutamate (potentiation), the resulting signal is determined by subtraction of the background fluorescence from the maximal fluorescent peak height of the respective response. In the FLIPR instrument the compound is given to the cell and its fluorescence response quantified by the FLIPR instrument (agonism). The concentration at which the compound exerts half its maximal effect is named the ‘effective concentration 50’ or ‘EC50’. The maximal effect induced by the test substance is normalized to the maximal effect exerted by 100 μM glutamate (set at 100%).
After addition of the test compound to the plate, a submaximal concentration of glutamate (e.g. 1 μM glutamate) will be added. A potentiator enhances the response of the receptor to glutamate. The response to glutamate in the presence of test compound is quantified. The concentration at which the test compound is able to exert half its maximal potentiation effect to glutamate is named the ‘EC50’. The maximal response to the submaximal concentration of glutamate (e.g. 1 micromolar glutamate) in the presence of test compound is normalized to the maximal effect exerted by 100 micromolar glutamate (set at 100%). Least squares curve fitting with a four-parameter equation is then applied to the resulting dose-response curve to determine the resulting EC50 values (Graph Pad Prism).
For the purpose of the present study, a cell line permanently expressing the human mGlu2 receptor, the rat glutamate transporter rGLAST and the alpha subunit of G16 was generated by transfection. […]

T1 sequence (Q14416 19-872): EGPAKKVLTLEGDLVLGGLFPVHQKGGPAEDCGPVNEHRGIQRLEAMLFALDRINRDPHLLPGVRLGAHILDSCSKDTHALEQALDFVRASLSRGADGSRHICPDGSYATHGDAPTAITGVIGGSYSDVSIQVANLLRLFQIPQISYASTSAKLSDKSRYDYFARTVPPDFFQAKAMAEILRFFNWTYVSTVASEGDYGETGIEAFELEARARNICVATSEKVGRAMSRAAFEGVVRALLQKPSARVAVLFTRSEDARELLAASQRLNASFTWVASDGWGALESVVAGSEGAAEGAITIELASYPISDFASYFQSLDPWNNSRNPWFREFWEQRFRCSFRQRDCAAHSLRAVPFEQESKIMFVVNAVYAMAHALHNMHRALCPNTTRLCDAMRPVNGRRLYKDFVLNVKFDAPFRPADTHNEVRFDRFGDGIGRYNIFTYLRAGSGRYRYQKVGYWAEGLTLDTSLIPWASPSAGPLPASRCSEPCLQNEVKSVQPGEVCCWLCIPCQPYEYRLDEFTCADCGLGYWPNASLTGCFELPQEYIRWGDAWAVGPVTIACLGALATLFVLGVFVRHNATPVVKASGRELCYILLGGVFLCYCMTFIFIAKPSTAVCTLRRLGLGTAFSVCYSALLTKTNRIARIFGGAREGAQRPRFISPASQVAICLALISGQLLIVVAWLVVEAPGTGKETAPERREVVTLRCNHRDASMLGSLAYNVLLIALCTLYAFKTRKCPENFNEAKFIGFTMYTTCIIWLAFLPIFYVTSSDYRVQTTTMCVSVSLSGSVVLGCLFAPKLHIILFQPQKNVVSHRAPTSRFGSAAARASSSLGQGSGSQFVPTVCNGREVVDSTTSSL

Compound | EC50
CCCCN1Cc2cc(OCc3c(-c4ccccc4)cc(C)nc3C)ccc2C1=O [Example 1, 2-butyl-5-((2,6-dimethyl-4-phenylpyridin-3-yl)methoxy)isoindolin-1-one] | < 500 nM
Cc1cc(-c2ccccc2)c(COc2ccc3c(c2)CN(CCOC(F)(F)F)C3=O)c(C)n1 [Example 2, 5-((2,6-dimethyl-4-phenylpyridin-3-yl)methoxy)-2-(2-(trifluoromethoxy)ethyl)isoindolin-1-one] | < 500 nM
CCCN1Cc2cc(OCc3cnccc3Oc3ccccc3)ccc2C1=O [Example 3, 5-((4-phenoxypyridin-3-yl)methoxy)-2-propylisoindolin-1-one] | 500 to 2000 nM
CCCCN1Cc2cc(OCc3c(-c4ccccc4)ccnc3Cl)ccc2C1=O [Example 4, 2-butyl-5-((2-chloro-4-phenylpyridin-3-yl)methoxy)isoindolin-1-one] | < 500 nM
CCCCN1Cc2cc(OCc3c(I)ccnc3Cl)ccc2C1=O [Example 5, 2-butyl-5-((2-chloro-4-iodopyridin-3-yl)methoxy)isoindolin-1-one] | < 500 nM
CCCN1Cc2cc(OCc3cnccc3-c3ccccc3)ccc2C1=O [Example 6, 5-(4-Phenyl-pyridin-3-ylmethoxy)-2-propyl-2,3-dihydro-isoindol-1-one] | < 500 nM
O=C1c2ccc(OCc3cnccc3-c3ccccc3)cc2CN1CCOC(F)(F)F [Example 7, 5-(4-Phenyl-pyridin-3-ylmethoxy)-2-(2-trifluoromethoxy-ethyl)-2,3-dihydro-isoindol-1-one] | < 500 nM
CCCN1Cc2cc(OCc3cnccc3NC(=O)OC(C)(C)C)ccc2C1=O [Example 8, [3-(1-oxo-2-propyl-2,3-dihydro-1H-isoindol-5-yloxymethyl)-pyridin-4-yl]-carbamic acid tert-butyl ester] | 2000 to 10000 nM
CCN1Cc2cc(OCc3c(-c4ccccc4)cc(C)nc3C)ccc2C1=O [Example 11, 5-(2,6-Dimethyl-4-phenyl-pyridin-3-ylmethoxy)-2-ethyl-2,3-dihydroisoindol-1-one] | < 500 nM
CCCCN1Cc2cc(NCc3c(-c4ccccc4)cc(C)nc3C)ccc2C1=O [Example 13, 2-butyl-5-((2,6-dimethyl-4-phenylpyridin-3-yl)methylamino)isoindolin-1-one] | < 500 nM
CCCCN1Cc2cc(NCc3cnccc3C(F)(F)F)ccc2C1=O [Example 14, 2-butyl-5-((4-(trifluoromethyl)pyridin-3-yl)methylamino)isoindolin-1-one] | < 500 nM
CCCCN1Cc2cc(NCc3cnccc3-c3ccccc3)ccc2C1=O [Example 15, 2-butyl-5-((4-phenylpyridin-3-yl)methylamino)isoindolin-1-one] | < 500 nM
CCCCN1Cc2cc(NCc3cnccc3Oc3ccccc3)ccc2C1=O [Example 16, 2-butyl-5-((4-phenoxypyridin-3-yl)methylamino)isoindolin-1-one] | < 500 nM
CCCCN1Cc2cc(NCc3c(C(F)(F)F)ccnc3Cl)ccc2C1=O [Example 17, 2-butyl-5-((2-chloro-4-(trifluoromethyl)pyridin-3-yl)methylamino)-isoindolin-1-one] | < 500 nM
CCCCN1Cc2cc(NCc3cnccc3Nc3ccccc3)ccc2C1=O [Example 19, 2-butyl-5-((4-(phenylamino)pyridin-3-yl)methylamino)isoindolin-1-one] | 500 to 2000 nM
CCCCN1Cc2cc(NCc3cnccc3-c3ccc(C#N)cc3)ccc2C1=O [Example 20, 4-(3-((2-butyl-1-oxoisoindolin-5-ylamino)methyl)pyridin-4-yl)benzonitrile] | < 500 nM

Compound | EC50
CCCCN1Cc2cc(NCc3cnccc3-c3ccc(C(F)(F)F)cc3)ccc2C1=O [Example 21, 2-butyl-5-((4-(4-(trifluoromethyl)phenyl)pyridin-3-yl)methylamino)-isoindolin-1-one] | < 500 nM
CCCCN1Cc2cc(NCc3cccnc3)ccc2C1=O [Example 22, 2-butyl-5-[(pyridin-3-ylmethyl)amino]-2,3-dihydro-1H-isoindol-1-one] | 2000 to 10000 nM
Cc1cc(-c2ccccc2)c(CNc2cc(Cl)c3c(c2)CN(C2CC2)C3=O)c(C)n1 [Example 23, 7-chloro-2-cyclopropyl-5-{[(2,6-dimethyl-4-phenylpyridin-3-yl)methyl]amino}-2,3-dihydro-1H-isoindol-1-one] | < 500 nM
O=C1c2c(Cl)cc(NCc3c(C(F)(F)F)ccnc3Cl)cc2CN1C1CC1 [Example 24, 7-chloro-5-({[2-chloro-4-(trifluoromethyl)pyridin-3-yl]methyl}amino)-2-cyclopropyl-2,3-dihydro-1H-isoindol-1-one] | < 500 nM
CCCCN1Cc2cc(NCc3cnccc3N3CCOCC3)ccc2C1=O [Example 25, 2-butyl-5-({[4-(morpholin-4-yl)pyridin-3-yl]methyl}amino)-2,3-dihydro-1H-isoindol-1-one] | 500 to 2000 nM
CCCCN1Cc2cc(NCc3cnccc3N3CCN(C)CC3)ccc2C1=O [Example 26, 2-butyl-5-({[4-(4-methylpiperazin-1-yl)pyridin-3-yl]methyl}amino)-2,3-dihydro-1H-isoindol-1-one] | 2000 to 10000 nM
CCCCN1Cc2cc(NCc3c(C)ccnc3Cl)ccc2C1=O [Example 33, 2-butyl-5-{[(2-chloro-4-methylpyridin-3-yl)methyl]amino}-2,3-dihydro-1H-isoindol-1-one] | 500 to 2000 nM
CCCCN1Cc2cc(NCc3ccc(Br)nc3Cl)ccc2C1=O [Example 34, 5-{[(6-bromo-2-chloropyridin-3-yl)methyl]amino}-2-butyl-2,3-dihydro-1H-isoindol-1-one] | 500 to 2000 nM
CCCCN1Cc2cc(NCc3c(Cl)ccnc3Cl)ccc2C1=O [Example 35, 2-butyl-5-{[(2,4-dichloropyridin-3-yl)methyl]amino}-2,3-dihydro-1H-isoindol-1-one] | < 500 nM
CCCCN1Cc2cc(NCc3ccc(Cl)nc3OC)ccc2C1=O [Example 36, 2-butyl-5-{[(6-chloro-2-methoxypyridin-3-yl)methyl]amino}-2,3-dihydro-1H-isoindol-1-one] | 500 to 2000 nM
CCCCN1Cc2cc(NCc3ccc(OC)nc3Cl)ccc2C1=O [Example 37, 2-butyl-5-{[(2-chloro-6-methoxypyridin-3-yl)methyl]amino}-2,3-dihydro-1H-isoindol-1-one] | 500 to 2000 nM
CCCCN1Cc2cc(NCc3cccnc3Cl)ccc2C1=O [Example 38, 2-butyl-5-{[(2-chloropyridin-3-yl)methyl]amino}-2,3-dihydro-1H-isoindol-1-one] | 2000 to 10000 nM
COCCN1Cc2cc(NCc3c(C(F)(F)F)ccnc3Cl)cc(C)c2C1=O [Example 39] | 500 to 2000 nM
CCCCN1Cc2cc(NCc3cnccc3NCc3ccccc3)ccc2C1=O [Example 42, 5-((4-(benzylamino)pyridin-3-yl)methylamino)-2-butylisoindolin-1-one] | 2000 to 10000 nM
CCCCN1Cc2cc(NCc3cnccc3NC(=O)C(C)(C)C)ccc2C1=O [Example 43, N-(3-((2-butyl-1-oxoisoindolin-5-ylamino)methyl)pyridin-4-yl)pivalamide] | 500 to 2000 nM
Cc1cc(-c2ccccc2)c(COc2ccc3c(c2)CN(CCOC(F)(F)F)C3=O)c(C)[n+]1[O-] [Example 44, 2,6-dimethyl-3-((1-oxo-2-(2-(trifluoromethoxy)ethyl)-isoindolin-5-yloxy)-methyl)-4-phenylpyridine 1-oxide] | < 500 nM
